The test addresses T1, GLP-1R (Homo sapiens, UniProt P43220).
T1 construct: host or cells: GLP-1R CRE-bla CHO-K1 cells
The test can be described thus: EC20 GLP-1(9-36) PAM cAMP assay: dose response of compound in the presence of fixed concentration of GLP-1(9-36). The test is classed as cell-based. Conditions: dose response of compound in presence of fixed concentration of GLP-1(9-36), GLP-1R CRE-bla CHO-K1 cells, read-out: EC20 GLP-1(9-36) PAM EC50. Summed up:
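GLP-1R CRE-bla CHO-K1 cells treated 30 min at 37 °C with 12-point compound dose response plus fixed EC20 GLP-1(9-36), with IBMX, in HBSS/HEPES/0.1% BSA pH 7.4. Total cAMP measured by luminescent detection against standard curve; EC50 and Emax from non-linear regression.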
(In general: cAMP levels reflect the balance of adenylyl cyclase and phosphodiesterase activity.)
T1 sequence (P43220 24-463): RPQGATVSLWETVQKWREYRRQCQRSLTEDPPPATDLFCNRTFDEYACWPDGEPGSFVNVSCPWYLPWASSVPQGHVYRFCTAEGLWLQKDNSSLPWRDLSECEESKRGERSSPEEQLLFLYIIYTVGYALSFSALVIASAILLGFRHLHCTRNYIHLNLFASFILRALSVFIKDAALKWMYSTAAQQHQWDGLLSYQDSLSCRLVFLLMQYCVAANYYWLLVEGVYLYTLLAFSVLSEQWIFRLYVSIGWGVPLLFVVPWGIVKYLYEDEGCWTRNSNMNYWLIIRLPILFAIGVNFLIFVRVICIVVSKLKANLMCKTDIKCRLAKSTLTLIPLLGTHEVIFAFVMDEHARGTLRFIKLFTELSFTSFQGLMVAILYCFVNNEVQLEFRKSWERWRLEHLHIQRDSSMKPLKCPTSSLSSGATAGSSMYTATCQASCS
T1 sequence (P01275 100-127 partner limits assumed): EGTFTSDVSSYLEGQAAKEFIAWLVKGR
Broadly, the EC50 is the midpoint of the concentration-response curve. For `CCCCCCCOc1ccc(-c2cnc(-c3ccc(CC(NC(=O)c4ccc(C(C)(C)C)s4)C(=O)N[C@@H](CSSC[C@H](N)C(=O)O)C(=O)O)cc3)nc2)cc1` (stereo partly drawn) [Compound 426], the 50% effective concentration (EC50) is 800 to 2500 nM. To `CCCCCCCOc1ccc(-c2cnc(-c3ccc(CC(NC(=O)c4ccc(C(C)(C)C)s4)C(=O)N[C@@H](CCCCN)C(=O)O)cc3)nc2)cc1` (stereo partly drawn) [Compound 427] belongs 800 to 2500 nM; to `CCCCCCCOc1ccc(-c2cnc(-c3ccc(CC(NC(=O)c4ccc(C(C)(C)C)s4)C(=O)N[C@@H](Cc4ccc(O)cc4)C(=O)O)cc3)nc2)cc1` (stereo partly drawn) [Compound 428], 800 to 2500 nM; to `CCCCCCCOc1ccc(-c2cnc(-c3ccc(CC(NC(=O)c4ccc(C(C)(C)C)s4)C(=O)NCCCC(=O)O)cc3)nc2)cc1` (stereo not drawn) [Compound 429], 2500 to 5000 nM. Next, `CCCCCCCOc1ccc(-c2cnc(-c3ccc(CC(NC(=O)c4ccc(C(C)(C)C)s4)C(=O)NCC4CCN(C)CC4)cc3)nc2)cc1` (stereo not drawn) [Compound 430]: 5000 to 10000 nM; `CCCCCCCOc1ccc(-c2cnc(-c3ccc(CC(NC(=O)c4ccc(C(C)(C)C)s4)C(=O)N4CC(C(=O)O)C4)cc3)nc2)cc1` (stereo not drawn) [Compound 431]: less than 800 nM; `CCCCCCCOc1ccc(-c2cnc(-c3ccc(CC(NC(=O)c4ccc(C(C)(C)C)s4)C(=O)N[C@@H](Cc4c[nH]c5ccccc45)C(=O)O)cc3)nc2)cc1` (stereo partly drawn) [Compound 432]: less than 800 nM. To `CCCCCCCOc1ccc(-c2cnc(-c3ccc(C[C@@H](NC(=O)c4ccc(C(C)(C)C)cc4)C(=O)NCCC(=O)O)cc3)nc2)cc1` [Compound 433] belongs 2500 to 5000 nM. With `CCCCCCCOc1ccc(-c2cnc(-c3ccc(C[C@H](NC(=O)c4ccc(C(C)(C)C)s4)C(=O)NS(=O)(=O)CC(=O)O)cc3)nc2)cc1` [Compound 434], the EC50 was 800 to 2500 nM. Next, `CCCCCCCOc1ccc(-c2cnc(-c3ccc(C[C@H](NC(=O)c4ccc(C(C)(C)C)s4)C(=O)NS(=O)(=O)CCOC)cc3)nc2)cc1` [Compound 435]: 800 to 2500 nM; `CCCCCCCOc1ccc(-c2cnc(-c3ccc(C[C@@H](NC(=O)c4ccc(C(C)(C)C)cc4)C(=O)N[C@@H](C)C(=O)O)cc3)nc2)cc1` [Compound 436]: less than 800 nM; `CCCCCCCOc1ccc(-c2cnc(-c3ccc(C[C@@H](NC(=O)c4ccc(C(C)(C)C)cc4)C(=O)N[C@H](C)C(=O)O)cc3)nc2)cc1` [Compound 437]: less than 800 nM. On to `CCCCCCCOc1ccc(-c2cnc(-c3ccc(C[C@H](NC(=O)c4ccc(C(C)(C)C)s4)C(=O)NC[C@H]4CCNC4)cc3)nc2)cc1` [Compound 438], for which the half-maximal effective concentration (EC50) lay in the range of 5000 to 10000 nM. As to `CCCCCCCOc1ccc(-c2cnc(-c3ccc(C[C@H](NC(=O)c4ccc(C(C)(C)C)s4)C(=O)NC[C@@H]4CCNC4)cc3)nc2)cc1` [Compound 439], the concentration giving a half-maximal response (EC50) is 2500 to 5000 nM. As to `CCCCCCCOc1ccc(-c2cnc(-c3ccc(C[C@H](NC(=O)c4ccc(C(C)(C)C)cc4)C(=O)NC(C(=O)O)c4ccco4)cc3)nc2)cc1` (stereo partly drawn) [Compound 440], the EC50 is less than 800 nM. Next, `CCCCCCCOc1ccc(-c2cnc(-c3ccc(CC(NC(=O)c4ccc(C(C)(C)C)s4)C(=O)Nc4cccc(C(=O)O)c4)cc3)nc2)cc1` (stereo not drawn) [Compound 441]: 800 to 2500 nM; `CCCCCCCOc1ccc(-c2cnc(-c3ccc(CC(NC(=O)c4ccc(C(C)(C)C)s4)C(=O)Nc4ccc(C(=O)O)cc4)cc3)nc2)cc1` (stereo not drawn) [Compound 442]: 800 to 2500 nM; `CCOCCCCOc1ccc(-c2cnc(-c3ccc(C[C@H](NC(=O)c4ccc(C(C)(C)C)cc4)C(=O)NCCC(=O)O)cc3)nc2)cc1` [Compound 443]: 800 to 2500 nM. To `CCCCCCCOc1ccc(-c2cnc(-c3ccc(C[C@H](NC(=O)c4ccc(C(C)(C)C)cc4)C(=O)NCC(=O)NCC(=O)O)cc3)nc2)cc1` [Compound 444] belongs less than 800 nM; to `CCCCCCCOc1ccc(-c2cnc(-c3ccc(C[C@H](NC(=O)c4ccc(C(C)(C)C)cc4)C(=O)NCC(=O)NCCC(=O)O)cc3)nc2)cc1` [Compound 445], less than 800 nM. Next, `CCCCCCCOc1ccc(-c2cnc(-c3ccc(C[C@H](NC(=O)c4ccc(C(C)C)cc4)C(=O)NCCC(=O)O)cc3)nc2)cc1` [Compound 446]: 800 to 2500 nM; `CCCCCCCOc1ccc(-c2cnc(-c3ccc(C[C@H](NC(=O)c4ccc(C(C)(C)C)cc4)C(=O)NC(CN(C)C)C(=O)O)cc3)nc2)cc1` (stereo partly drawn) [Compound 447]: 800 to 2500 nM; `CCCCCCCOc1ccc(-c2cnc(-c3ccc(C[C@H](NC(=O)c4ccc(C(C)(C)C)s4)C(=O)N4CCC(C(=O)O)CC4)cc3)nc2)cc1` [Compound 448]: less than 800 nM. As for `CCCCCCCOc1ccc(-c2cnc(-c3ccc(C[C@H](NC(=O)c4ccc(C(C)(C)C)cc4)C(=O)N[C@H](C(=O)O)[C@@H](C)CC)cc3)nc2)cc1` [Compound 449], the concentration giving a half-maximal response (EC50) fell in the range of 800 to 2500 nM.

For the compound `CCCCCCCOc1ccc(-c2cnc(-c3ccc(C[C@H](NC(=O)c4ccc(C(C)(C)C)cc4)C(=O)N[C@H](C(=O)O)[C@@H](C)O)cc3)nc2)cc1` [Compound 450], the concentration for a half-maximal effect (EC50) was less than 800 nM. With `CCCCCCCOc1ccc(-c2cnc(-c3ccc(C[C@H](NC(=O)c4ccc(C(C)(C)C)cc4)C(=O)N[C@@H](Cc4ccc(O)cc4)C(=O)O)cc3)nc2)cc1` [Compound 451], the EC50 is less than 800 nM.

On to `CCCCCCCOc1ccc(-c2cnc(-c3ccc(C[C@H](NC(=O)c4ccc(C(C)(C)C)cc4)C(=O)N[C@@H](CN)C(=O)O)cc3)nc2)cc1` [Compound 452], for which the EC50 was 2500 to 5000 nM. Next, `CCCCCCCOc1ccc(-c2cnc(-c3ccc(C[C@H](NC(=O)c4ccc(C(C)(C)C)cc4)C(=O)NC(C(=O)O)c4ccc(C(F)(F)F)cc4)cc3)nc2)cc1` (stereo partly drawn) [Compound 453]: 800 to 2500 nM. Next, `CCCCCCCOc1ccc(-c2cnc(-c3ccc(C[C@H](NC(=O)c4ccc(C(C)(C)C)cc4)C(=O)NC(C(=O)O)c4ccc(C)cc4)cc3)nc2)cc1` (stereo partly drawn) [Compound 454]: 800 to 2500 nM. To `CCCCCCCOc1ccc(-c2cnc(-c3ccc(C[C@H](NC(=O)c4ccc(C(C)(C)C)cc4)C(=O)NC(C(=O)O)c4cccs4)cc3)nc2)cc1` (stereo partly drawn) [Compound 455] belongs less than 800 nM. On to `CC(C)CCOc1ccc(-c2cnc(-c3ccc(C[C@H](NC(=O)c4ccc(C(C)(C)C)cc4)C(=O)NCCC(=O)O)cc3)nc2)cc1` [Compound 456], for which the EC50 was in the range of 800 to 2500 nM. To `CCCCOCCOc1ccc(-c2cnc(-c3ccc(C[C@H](NC(=O)c4ccc(C(C)(C)C)cc4)C(=O)NCCC(=O)O)cc3)nc2)cc1` [Compound 457] belongs 2500 to 5000 nM. For the compound `CC(C)CCCOc1ccc(-c2cnc(-c3ccc(C[C@H](NC(=O)c4ccc(C(C)(C)C)cc4)C(=O)NCCC(=O)O)cc3)nc2)cc1` [Compound 458], the 50% effective concentration (EC50) is 800 to 2500 nM. With `CCCCCCCOc1ccc(-c2cnc(-c3ccc(CC(NC(=O)c4ccc(C(C)(C)C)s4)C(=O)NCCCCC(=O)O)cc3)nc2)cc1` (stereo not drawn) [Compound 459], the EC50 fell in the range of 800 to 2500 nM.

`CCCCCCCOc1ccc(-c2cnc(-c3ccc(CC(NC(=O)c4ccc(C(C)(C)C)s4)C(=O)NCCCCCC(=O)O)cc3)nc2)cc1` (stereo not drawn) [Compound 460]: the concentration for a half-maximal effect (EC50) is 5000 to 10000 nM. For the compound `CCCCCCCOc1ccc(-c2cnc(-c3ccc(C[C@H](NC(=O)c4ccc(C(C)(C)C)s4)C(=O)NC[C@@H](CO)C(=O)O)cc3)nc2)cc1` [Compound 461], the EC50 was 800 to 2500 nM. As to `CCCCCCCOc1ccc(-c2cnc(-c3ccc(C[C@H](NC(=O)c4ccc(C(C)(C)C)s4)C(=O)NCC(O)CO)cc3)nc2)cc1` (stereo partly drawn) [Compound 462], the EC50 was in the range of 5000 to 10000 nM. Next, `CCCCCCCOc1ccc(-c2cnc(-c3ccc(C[C@H](NC(=O)c4ccc(C(C)(C)C)s4)C(=O)NCC4CCNCC4)cc3)nc2)cc1` [Compound 463]: 5000 to 10000 nM. Next, `CCCCCCCOc1ccc(-c2cnc(-c3ccc(C[C@H](NC(=O)c4ccc(C(C)(C)C)s4)C(=O)N4CCC(NC)CC4)cc3)nc2)cc1` [Compound 464]: 5000 to 10000 nM.

Take `CCCCCCCOc1ccc(-c2cnc(-c3ccc(C[C@H](NC(=O)c4ccc(C(C)(C)C)cc4)C(=O)N[C@H](CN)C(=O)O)cc3)nc2)cc1` [Compound 465]: the concentration giving a half-maximal response (EC50) lay in the range of 800 to 2500 nM. To `CCCCCCCOc1ccc(-c2cnc(-c3ccc(C[C@H](NC(=O)c4ccc(C(C)(C)C)cc4)C(=O)N[C@H](CCCCN)C(=O)O)cc3)nc2)cc1` [Compound 466] belongs 800 to 2500 nM; to `CCCCCCCOc1ccc(-c2cnc(-c3ccc(C[C@H](NC(=O)c4ccc(C(C)(C)C)cc4)C(=O)NC(Cn4cncn4)C(=O)O)cc3)nc2)cc1` (stereo partly drawn) [Compound 467, 2-((S)-2-(4-(tert-butyl)benzamido)-3-(4-(5-(4-(heptyloxy)phenyl)pyrimidin-2-yl)phenyl)propanamido)-3-(1H-1,2,4-triazol-1-yl)propanoic acid], less than 800 nM. To `CCCCCCCOc1ccc(-c2cnc(-c3ccc(C[C@H](NC(=O)c4ccc(C(C)(C)C)cc4)C(=O)NC(C(=O)O)c4cccnc4)cc3)nc2)cc1` (stereo partly drawn) [Compound 468] belongs less than 800 nM. Next, `CCCCCCCOc1ccc(-c2cnc(-c3ccc(C[C@H](NC(=O)c4ccc(C(C)(C)C)cc4)C(=O)N[C@@H](CCCN)C(=O)O)cc3)nc2)cc1` [Compound 469]: 800 to 2500 nM.

Take `CCCCCCCOc1ccc(-c2cnc(-c3ccc(C[C@H](NC(=O)c4cc(C)cs4)C(=O)O)cc3)nc2)cc1` [Compound 470]: the EC50 is less than 800 nM. Next, `COCCCCCOc1ccc(-c2cnc(-c3ccc(C[C@H](NC(=O)c4ccc(C(C)(C)C)cc4)C(=O)NCCC(=O)O)cc3)nc2)cc1` [Compound 471]: 5000 to 10000 nM; `CC(C)CCCCOc1ccc(-c2cnc(-c3ccc(C[C@H](NC(=O)c4ccc(C(C)(C)C)cc4)C(=O)NCCC(=O)O)cc3)nc2)cc1` [Compound 472, (S)-3-(2-(4-(tert-butyl)benzamido)-3-(4-(5-(4-((5-methylhexyl)oxy)phenyl)-pyrimidin-2-yl)phenyl)propanamido)propanoic acid]: 800 to 2500 nM.

Turning to `CCC(C)COc1ccc(-c2cnc(-c3ccc(C[C@H](NC(=O)c4ccc(C(C)(C)C)cc4)C(=O)NCCC(=O)O)cc3)nc2)cc1` (stereo partly drawn) [Compound 473], the concentration giving a half-maximal response (EC50) fell in the range of 5000 to 10000 nM.

Values taken from US10034886B2, “GLP-1 receptor modulators” (Celgene International II SÀRL, priority 2014, dated 2018).
